From patent US8093393B2, “Cationic ceramides, and analogs thereof, and their use for preventing or treating cancer” (MUSC Foundation for Research Development, priority 2004, dated 2012)

Experiments:
[1] = test system: L929 mouse fibroblast cells; assay: TNFα-induced PGE2 release; assay type: cell-based
Source text: Interleukin-1 is a major inducer of inflammation and TNF is an important regulator of the reaction. Both cytokines can activate ceramidase, and thus inhibiting the activity of ceramidase can result in an anti-inflammatory effect. This may involve the prevention of the formation of sphingosine and sphingosine phosphate which have pro-inflammatory effects. Also, inhibition of ceramidase may prevent the hyperproliferation of immune cells that are important for inflammation. […] The release of PGE2 is also shown to be inhibited by D-(N-myristolyamino)-1-phenyl-1-propanol), D-MAPP, which is an inhibitor of one of the ceramidase. This observation may be important for inhibiting inflammatory reactions that occur in conditions, such as but not limited to rheumatoid arthritis. Thus, it is possible to treat or prevent inflammation by regulating the level of cellular ceramide using the method of the invention. As discussed above, ceramide level can be increased by administering compounds of the present invention that can inhibit mitochondrial ceramidase.

UM-SCC-22A xenografts = conditions: 40 mg/kg/each IP every 4 days for 20 days
Protocol: A) Upper Panel: In vivo therapeutic efficacy of L-t-C6-Pyr-Cer in combination with GMZ was determined in SKID mice harboring the UM-SCC-22A xenografts implanted in both flanks. The animals were treated with L-t-C6-Pyr-Cer and GMZ at 40 mg/kg/each every 4 days for 20 days. […] In these experiments, each group contained 6 mice, harboring 12 tumors, in this study. Error bars represent standard deviations, and p values were calculated. […] C) The blood counts, the levels of serum enzymes, and electrolytes were analyzed in response to L-t-C6-Pyr-Cer alone or in combination with GMZ in SKID mice.
After tumors were grown to about 200-400 mm^3 (about two weeks after implantation), the mice were treated without or with chemotherapeutic agents with intraperitoneal (IP) injection (alone or in combination) at half of their maximum tolerated doses (MTD) every 4 days for 20 days. Tumor volumes and the weights of the animals were measured before each treatment, and tumor sizes were measured at the end of the study. The endpoint was tumor rate of growth and/or tumor volume, which was calculated using the formula: length×width^2×0.52. Each experiment included at least 6 mice (which harbored two SCC tumors in flanks) per each treatment, and experiments were done at least in two independent trials.

telomeres = assay: Telomere length (TRF) in tumor tissues; assay type: in vivo, human; conditions: versus untreated controls
Source text: FIG. 29. […] In (B), DNA samples obtained from tumors treated with GMZ (G), L-t-C6-Pyr-Cer (Cer), and the combination of L-t-C6-Pyr-Cer with GMZ (G/C, lanes 2-4, respectively) were compared to that of untreated (U) tumors (lane 1). Lanes 5 and 6 contain DNA samples with low (L) and high (H) molecular weight (3.9 and 10.2 kb, respectively) telomeres. In (D) The levels of hTERT protein in samples obtained from tumors treated with GMZ (G), L-t-C6-Pyr-Cer (Cer), and the combination of L-t-C6-Pyr-Cer with GMZ (G/Cer, lanes 2-4, respectively) were determined by Western blot analysis using rabbit polyclonal anti-hTERT antibody, and compared to that of untreated (U) tumors (lane 1). Lanes 5 and 6 contain samples from telomerase positive (+) and negative (−) extracts. Beta-actin levels of these samples were used as loading controls (lanes 1-6, lower panel). The data shown are representative of two independent trials, and error bars represent standard deviations.
Analysis of telomere length in tumor tissues. The measurement of telomere length was performed in total genomic DNA samples isolated from tumor tissues of the SCID mice using Telomere Restriction Fragment (TRF) Length measurement kit (Roche) by Southern blotting as described in Sundararaj, et al. J Biol Chem 2004; 279:6152-6162.

telomerase = assay: Telomerase activity (TRAP) in treated cells; assay type: cell-based, human; conditions: UM-SCC-22A, 48 hr, C6-Pyr-Cer 1 μM, GMZ 100 nM
Protocol: FIGS. 13A to 13B. Roles of CCPS on cell cycle profiles, and telomerase activity of UM-SCC-22A cells. (FIG. 13A) The effects of D-e-C6—, D-e-C12- and L-th-C12-pyridinium ceramides (at 1 μM for 48 hr) on cell cycle profiles of UM-SCC-22A cells were determined and compared to that of untreated cells using flow cytometry as described in Materials and Methods. (FIG. 13B) The effects of 0, 100, 250 and 500 nM L-t-C6-Pyr-Cer (LCL-124) (lanes 1-4, respectively) at 96 hr treatment in UM-SCC-22A cells on telomerase activity was assessed using TRAP assay. Lanes 5 and 6 contain positive (+) and negative (−) controls. To examine whether C6-Pyr-Cer inhibits telomerase activity directly, cell extracts (as shown in lane 1) were incubated in the presence of various concentrations of L-th-C6-Pyr-ceramide (LCL-124; 10, 20 and 100 μM) and telomerase activity was determined using TRAP assay (lanes 7-9, respectively). The presence of non-telomeric 36 bp internal standard (IS) in the TRAP assay serves as a control for polymerase chain reaction, and used for quantitation/normalization of the activity of telomerase. The results shown are representative of at least two independent experiments.
FIGS. 14A to 14D. […] (FIG. 14A) The effects of various chemotherapeutic agents on cell growth in UM-SCC-22A cells were determined using MTT assays, and the IC50 concentrations of each agent were determined from cell growth plots as described. (FIG. 14B) The synergistic effects of DOX and L-th-C6-Pyr-Cer (LCL-124) on cell growth were assessed using isobologram studies as described in Materials and Methods. (FIG. 14C) The effects of 1 μM L-th-C6-Pyr-Cer (LCL-124) or cetyl-pyridinium-bromide, without ceramide conjugate (used as a control) on the growth inhibition potential of GMZ in UM-SCC-22A cells were determined using MTT assays. (FIG. 14D) The effects of GMZ (100 nM), L-th-C6-Pyr-Cer (LCL-124; 1 μM) or GMZ and L-th-C6-Pyr-Cer (LCL-124) (100 nM and 1 μM, respectively) on telomerase activity in UM-SCC-22A cells at 48 hr were examined using TRAP assay, and compared to that of untreated controls (lanes 2, 3, 4 and 1, respectively). The data shown are representative of at least two independent experiments performed in triplicate samples. Standard deviations in each sample were between 0.1-0.5.
Determination of telomerase activity. Telomerase activity in cell extracts was measured by the PCR-based telomere repeat amplification protocol (TRAP) using TRAPeze kit (Intergen, Gaithersburg, Md.) which includes a 36-bp internal control to allow quantification of activity. In short, the intensity of telomere-specific DNA bands, measured using Quantity One (BioRad) software, were normalized to the intensity of internal control bands for each sample on polyacrylamide gels for quantification.

UM-SCC-22A cells = assay: MTT cell survival assay and isobologram studies; assay type: cell-based, human; conditions: Homo sapiens, read-out: IC50 of chemotherapeutic agents
Protocol: Human head and neck cancer cell lines UM-SCC-1 (retromolar trigone/floor of the mouth), UM-SCC-12 (primary tumor of larynx), and UM-SCC-22A cells were obtained from clinical samples. Cells were grown in DMEM containing 10% FCS and 1% penicillin/streptomycin at 37° C. in 5% CO2.
MTT cell survival assay and isobologram studies. The concentrations of agents that inhibited cell growth by 50% (IC50) were determined from cell survival plots obtained by MTT. Triplicate wells were used for each treatment. The final concentration of DMSO (a solvent for conventional ceramides, GMZ and DOX) in the growth medium was less than 0.1% (v/v) which has no effect on cell growth and survival. Pyridinium ceramides were dissolved in sterile water or growth medium. In short, after cells (5-10×10^3/well) were seeded in 96-well-plates for 24 hr, they were treated with increasing concentrations of ceramide analogs for an additional 48 or 96 hr. For combination treatments, ceramides and chemotherapeutic agents (gemcitabine (GMZ) or doxorubicin (DOX)) were added to the growth medium simultaneously during treatment. Isobologram plots were then constructed using IC50 values of the two agents alone or in combination obtained from MTT assays. A straight line joining points on x- and y-axes represent the IC50 concentrations of two agents, and the points representing the IC50 concentrations of the combination of the two agents are represented as scatter plots on the same graphs. In general, the points that fall within the left of the straight line indicate synergism. The experiments were performed as triplicates in at least 3 independent experiments.
Human head and neck cancer cell lines UM-SCC-1 (retromolar trigone/floor of the mouth), UM-SCC-14A (SCC of anterior floor of the mouth), and UM-SCC-22A (SCC of hypopharynx) cells were obtained. Cells were grown in DMEM containing 10% FCS and 1% penicillin/streptomycin at 37° C. in 5% CO2.
MTT cell survival assay and isobologram studies. The concentrations of agents that inhibited cell growth by 50% (IC50) were determined from cell survival plots obtained by MTT assays. […] In general, the points that fall within the left of the straight line indicate synergism. The experiments were performed as triplicates in at least 3 independent experiments. Error bars represent standard deviations.

[2] = mice; cited from earlier work
MCF7 cells = conditions: 5 μM, 5 h
Protocol: FIGS. 4A-4C show the cellular levels of CCPS analogs. MCF 7 cells were treated with 5 μM concentration of CCPS analogs over the time and cellular level of the nonmetabolized CCPSs was measured by MS methodology as shown under Experimental. Results are expressed as % of concentration applied.
A parallel set of cells was used to determine cell proliferation and to prepare lipid extracts for MS analysis.
Briefly, for the indicated points, media was removed, cells were washed twice with PBS, scraped into cold PBS (2×1.0 ml), transferred to glass vials and centrifuged for 5 min at 800 rpm. Cell pellets corresponding to ˜1×10^6 cells, were fortified with the internal standards IS (C17 base D-erythro-sphingosine: 17Sph, C17 sphingosine-1-phosphate: 17Sph-1P, N-palmitoyl-D-erythro-C13 sphingosine: 13CC16-Cer and N-heptadecanoyl-D-erythro-C17shingosine: 17CC17-Cer) and extracted (2×2 ml) into a one-phase solvent system with ethyl acetate/iso-propanol/water (60/30/10 v/v). One ml of this extract was used for Pi determination after lipid re-extraction by the Bligh and Dyer method. Remaining lipid extract was evaporated, reconstituted in 100 μl of methanol, and samples were injected on the Surveyor/TSQ 7000 LC/MS system and gradient eluted from the BDS Hypersil C8, 150×3.2 mm, 3 μm particle size column, with 1.0 mM methanolic ammonium formate/2 mM aqueous ammonium formate mobile phase system. Peaks corresponding to the target analytes and IS were collected and processed using the Xcalibur software system.
Cellular level of CCPS analogs was established by MS methodology.

[3] = biological target: T1, dihydroceramide 4,5-desaturase (Homo sapiens, UniProt O15121); assay: Conversion of dhCCPS analogs to CCPS analogs in MCF7 cells; assay type: cell-based; conditions: MS
T1 construct: dihydroceramide 4,5-desaturase in MCF7 cells to generate the corresponding CCPS analogs; endogenous in cells; host or cells: MCF7
T1 sequence (O15121 1-323): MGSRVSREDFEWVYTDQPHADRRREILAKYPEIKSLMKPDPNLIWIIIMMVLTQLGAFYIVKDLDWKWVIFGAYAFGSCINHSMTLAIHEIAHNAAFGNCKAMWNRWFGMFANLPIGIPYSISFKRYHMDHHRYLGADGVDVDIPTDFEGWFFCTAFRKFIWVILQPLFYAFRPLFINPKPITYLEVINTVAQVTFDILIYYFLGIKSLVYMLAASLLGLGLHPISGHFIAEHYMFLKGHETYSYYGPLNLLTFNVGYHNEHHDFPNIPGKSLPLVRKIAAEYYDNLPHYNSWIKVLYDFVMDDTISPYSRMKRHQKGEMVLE
Source text: Absolute levels (pmol) of dhCCPS and CCPS analogs was established by MS approach as shown in the Examples (see Section 6). Data are expressed as changes of particular dhCCPS and CCPS to the total level of dhCCPS+CCPS (100%).

[4] = test system: MCF7 breast carcinoma cells; assay: Cell proliferation and viability, Trypan blue exclusion assay; assay type: cell-based; conditions: 48 h treatment; read-out: IC50, inhibitory effect on MCF7 cell growth
Protocol: FIGS. 5A-5F show the dose dependent effects of CCPS analogs on survival of MCF7 breast carcinoma cells in comparison to the activity of D-e-C6-ceramide, which is commonly used as a model of ceramide action. Cell proliferation and cell viability were determined by Trypan blue exclusion assay. These assays were performed using duplicate samples in two or three independent experiments.
Cell Proliferation: Cells were seeded into plates at a density of approx. 50% corresponding to 1×10^6 cells, in 10 ml of 10% FCS and after an over night incubation the cells were treated with LCL compounds at concentration 0-20 μM in ethanol (ethanol level was kept below 0.1%) and the changes in cell numbers after 48 h were determined and expressed as a percentage of the untreated controls.
Briefly, media was removed, cells were washed twice with PBS, detached using 1% Trypsin and centrifuged at 800 rpm. Cell pellets were resuspended in PBS and Trypan blue (Sigma Chemicals, St. Louis, Mo., USA) was added (1:1 dilution). Under light microscope, the percentage of unstained and stained cells was assessed.
To examine the anticancer activity of CCPS analogs of the invention, their inhibitory effect on MCF7 breast carcinoma cells were analyzed and compared to the activity of D-e-C6-ceramide, which is commonly used as a model of action for ceramides. Cell proliferation and cell viability were determined by Trypan blue exclusion assay.

[5] = Solubility of ceramides and ceramidoids in water

SMILES: CCCCCCCCCCCCCC(=O)NC(C)C(O)c1ccccc1 [D-MAPP]
- release of PGE2 [1]: inhibited

SMILES: Nc1ccn([C@@H]2O[C@H](CO)[C@@H](O)C2(F)F)c(=O)n1 [GMZ, gemcitabine, reference compound]
- inhibition of HNSCC tumor growth (UM-SCC-22A xenografts): some inhibition of HNSCC tumor growth
- reduction of TRF (telomere) length in tumors (telomeres): ~200 bp
- inhibition of telomerase activity (telomerase): 50%
- IC50 (UM-SCC-22A cells): 100 to 250 nM
- MTD of reference drugs (known) [2]: 80 mg/kg

SMILES: CCCCCCCCCCCCCCC[C@@H](O)[C@H](CO)NC(=O)CCCCCCCCCCC[n+]1ccccc1.[Br-] [LCL249, D-erythro-2-N-[12′-(1″-Pyridinium)-dodecanoyl]-4,5-dihydrosphingosine Bromide]
- Cellular level, % of concentration applied (MCF7 cells): 7%
- metabolism of dhCCPS to the corresponding CCPS analog [3]: time dependent formation of C12-CCPS (LCL88)

SMILES: CCCCCCCCCCCCCCC[C@@H](O)[C@H](CO)NC(=O)CCCCCCCCCCCCCCC[n+]1ccccc1.[Br-] [LCL345, D-erythro-2-N-[16′-(1″-Pyridinium)-hexadecanoyl]-4,5-dihydrosphingosine Bromide]
- IC50 [4]: 2500 nM
- Cellular level, % of concentration applied (MCF7 cells): 4%
- Solubility at 22° C. ([5]; 22° C.): 300 µg/mL
- Solubility at 22° C. ([mM]) ([5]; 22° C.): (0.42) mM
- Solubility at 37° C. ([5]; 37° C.): 1400 µg/mL
- Solubility at 37° C. ([mM]) ([5]; 37° C.): (2.0) mM
- metabolism of dhCCPS to the corresponding CCPS analog [3]: time dependent formation of C16-CCPS (LCL30)
